In one data set the target is T1, CYP 1A2 (Homo sapiens, UniProt P05177).
T1 construct: purchased; host or cells: baculosomes (insect-cell microsomes; own knowledge)
T1 sequence (P05177 1-516): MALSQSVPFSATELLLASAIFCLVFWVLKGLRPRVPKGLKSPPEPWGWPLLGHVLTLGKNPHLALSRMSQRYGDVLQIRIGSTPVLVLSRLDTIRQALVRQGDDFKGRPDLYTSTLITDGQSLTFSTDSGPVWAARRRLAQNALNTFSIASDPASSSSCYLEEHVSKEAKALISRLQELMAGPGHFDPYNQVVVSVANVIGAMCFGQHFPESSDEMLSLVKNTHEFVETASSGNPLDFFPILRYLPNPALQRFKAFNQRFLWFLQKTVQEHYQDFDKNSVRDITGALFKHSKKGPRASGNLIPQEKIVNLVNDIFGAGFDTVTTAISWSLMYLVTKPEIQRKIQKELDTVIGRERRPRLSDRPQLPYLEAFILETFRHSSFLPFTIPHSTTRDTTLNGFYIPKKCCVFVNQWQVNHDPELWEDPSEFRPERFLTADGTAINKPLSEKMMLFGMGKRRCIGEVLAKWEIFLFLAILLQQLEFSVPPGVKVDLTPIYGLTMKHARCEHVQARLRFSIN
Nature of the data set: CYP450 inhibition assay, CYP 1A2. The class given is in vitro ADME. Further details: dose or concentration left out as unconfirmed. To be noted: CYP baculosomes with recombinant human CYP1A2, probe fluorogenic substrate (not named); human recombinant enzymes; read-out: Mean % inhibtion CYP 1A2. As to the method:
(§1) The compounds originally dissolved in DMSO were added to PBS to give a resulting concentration of […]. CYP baculosomes containing cDNA for a single human P450 isozyme, the fluorogenic substrate and the NADPH were added to the test solution. The reaction was incubated at 37°C for at least 1 h. Fluorogenic substrates metabolized by CYP enzymes result in highly fluorescent products in aqueous solution. The inhibition of CYP prevents this metabolism, which corresponds to a decrease in the fluorescence signal. The fluorescence was measured on a plate reader.

In data set [1] the test system is MDCK cells carrying the MDR-1 gene. Nature of the data set: MDCK cell permeability assay. To be noted: MDCK MDR-1 monolayer, 10 μM, 30 min, apical to basolateral. It is filed as in vitro ADME, canine.
The test system of another data set is MDR-1. In words: MDCK cell permeability assay. The class given is in vitro ADME, canine. To be noted: dog, MDCK-MDR1, MDCK MDR-1 monolayer, 10 μM, 30 min; for Papp A→B at 30 min, 10 μM: apical to basolateral; for Papp B→A at 30 min, 10 μM: basolateral to apical.
The nature of data set [2]: MDCK cell permeability assay. The class given is in vitro ADME, canine. To be noted: dog, MDCK-MDR1; MDCK MDR-1 monolayer, class.
Data set [3] in a line: Human microsome stability assay. To be noted: for half-life: human, liver microsomes, read-out: t1/2 microsomes. It is filed as in vitro ADME. Further details: half-life: dose or concentration left out as unconfirmed. As to the method: Microsomes and NADPH were then added to the solution and the reaction was incubated at 37°C for up to 60 min. Acetonitrile (300 μL) with internal standard was added to stop the incubation. The samples were centrifuged and the supernatant was then analysed by HPLC-MS/MS to detect the parent compound.

The target in another data set is T2, CYP 2C19 (Homo sapiens, UniProt P33261).
T2 construct: purchased; host or cells: baculosomes (insect-cell microsomes; own knowledge)
T2 sequence (P33261 whole entry): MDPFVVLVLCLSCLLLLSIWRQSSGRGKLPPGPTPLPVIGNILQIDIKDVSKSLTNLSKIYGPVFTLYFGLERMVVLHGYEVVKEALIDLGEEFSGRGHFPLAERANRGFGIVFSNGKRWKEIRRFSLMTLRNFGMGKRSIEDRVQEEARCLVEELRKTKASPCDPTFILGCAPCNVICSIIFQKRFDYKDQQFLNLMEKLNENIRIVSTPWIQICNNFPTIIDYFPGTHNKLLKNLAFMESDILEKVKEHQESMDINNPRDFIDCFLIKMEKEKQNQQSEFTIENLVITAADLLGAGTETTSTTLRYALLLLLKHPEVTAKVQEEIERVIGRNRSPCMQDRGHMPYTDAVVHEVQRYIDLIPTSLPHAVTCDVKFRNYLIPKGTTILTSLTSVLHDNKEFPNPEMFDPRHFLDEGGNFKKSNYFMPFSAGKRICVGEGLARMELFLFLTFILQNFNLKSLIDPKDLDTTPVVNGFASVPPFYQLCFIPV
In words: CYP450 inhibition assay, CYP 2C19. The conditions noted are these: CYP baculosomes with recombinant human CYP2C19, probe fluorogenic substrate (not named); human recombinant enzymes; read-out: Mean % inhibtion CYP 2C19. Further details: dose or concentration left out as unconfirmed. The class given is in vitro ADME. As to the method: as §1

Data set [4] in a line: Human hepatocyte stability assay. It is filed as in vitro ADME. Further details: half-life / hepatocyte CLint: dose or concentration left out as unconfirmed. To be noted: for hepatic extraction ratio: hepatocyte stability assay; for half-life / hepatocyte CLint: human, hepatocytes; for half-life: read-out: t1/2 hepatocytes; for hepatocyte CLint: in vivo hepatic intrinsic clearance prediction values. The protocol:
The compounds originally dissolved in DMSO were added to PBS to give a resulting concentration of 1 mM. Hepatocytes were then added to the solution and the reaction was incubated at 37°C for up to 120 min. Acetonitrile with internal standard was added to stop the incubation. The samples were centrifuged and the supernatant was then analysed by HPLC-MS/MS to detect the parent compound.

The next data set relates to M. bovis BCG Pasteur. In words: microbe, parasite or virus in culture. The class given is cell-based. To be noted: Mycobacterium tuberculosis variant bovis BCG, BCG.
Data set [5] is described as follows: Aqueous kinetic solubility. The class given is physicochemical. The conditions noted are these: aqueous with cosolvent or surfactant or cyclodextrin, kinetic from dmso stock, 5% DMSO in PBS, 21°C. As to the method:
The compounds were equilibrated in 5% DMSO in PBS at 21°C for 24 h. The samples were then centrifuged at 15000 g for 10 min. A 100 μL sample of the supernatant was carefully collected and the soluble amount of compound quantified using LC-MS/MS. A standard curve for each compound was prepared in 100% acetonitrile. Solubility results are reported as low (<0.1 mg/mL), medium (0.1–0.5 mg/mL) and high (>0.5 mg/mL).

Data set [6] relates to murine macrophage cell line RAW264.7. In words: Eukaryotic cell toxicity assay, RAW264.7. To be noted: Mus musculus, read-out: GIC50 RAW264.7. It is filed as cell-based.
Data set [7] addresses MurE (Rv2158c) protein of M. tuberculosis H37Rv (Mycobacterium tuberculosis, UniProt P9WJL3). In words: Mtb-MurE HPLC inhibition assay. The class given is biochemical. The conditions noted are these: HPLC assay, 37°C 30 min.
The target of the next data set is T3, CYP 2D6 (Homo sapiens, UniProt P10635).
T3 construct: purchased; host or cells: baculosomes (insect-cell microsomes; own knowledge)
T3 sequence (P10635 whole entry): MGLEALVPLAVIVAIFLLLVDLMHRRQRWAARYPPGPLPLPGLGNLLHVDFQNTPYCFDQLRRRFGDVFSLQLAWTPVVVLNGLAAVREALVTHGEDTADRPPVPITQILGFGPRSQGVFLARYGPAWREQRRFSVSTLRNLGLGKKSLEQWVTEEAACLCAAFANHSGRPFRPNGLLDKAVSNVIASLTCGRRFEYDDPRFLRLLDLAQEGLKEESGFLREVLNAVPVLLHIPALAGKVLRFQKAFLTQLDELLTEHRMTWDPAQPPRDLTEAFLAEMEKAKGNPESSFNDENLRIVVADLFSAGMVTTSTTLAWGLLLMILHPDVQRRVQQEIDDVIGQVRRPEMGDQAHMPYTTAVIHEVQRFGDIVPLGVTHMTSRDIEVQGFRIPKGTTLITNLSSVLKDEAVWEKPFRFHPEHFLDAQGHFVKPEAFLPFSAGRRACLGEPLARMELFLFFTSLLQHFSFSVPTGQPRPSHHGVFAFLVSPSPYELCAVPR
In words: CYP450 inhibition assay, CYP 2D6. The conditions noted are these: CYP baculosomes with recombinant human CYP2D6, probe fluorogenic substrate (not named); human recombinant enzymes; read-out: Mean % inhibtion CYP 2D6. It is filed as in vitro ADME. Further details: dose or concentration left out as unconfirmed. As to the method:
as §1

A further data set has as its target T4, CYP 2C9 (Homo sapiens, UniProt P11712).
T4 construct: purchased; host or cells: baculosomes (insect-cell microsomes; own knowledge)
Nature of the data set: CYP450 inhibition assay, CYP 2C9. The class given is in vitro ADME. Further details: dose or concentration left out as unconfirmed. The conditions noted are these: CYP baculosomes with recombinant human CYP2C9, probe fluorogenic substrate (not named); human recombinant enzymes; read-out: Mean % inhibtion CYP 2C9. As to the method: as §1

The next data set has as its target T5, CYP 3A4 (Homo sapiens, UniProt P08684).
T5 construct: purchased; host or cells: baculosomes (insect-cell microsomes; own knowledge)
Nature of the data set: CYP450 inhibition assay, CYP 3A4. Further details: dose or concentration left out as unconfirmed. The conditions noted are these: CYP baculosomes with recombinant human CYP3A4, probe fluorogenic substrate (not named); human recombinant enzymes; read-out: Mean % inhibtion CYP 3A4. It is filed as in vitro ADME. As to the method:
as §1

The next data set deals with P-glycoprotein (Homo sapiens, UniProt P08183). Nature of the data set: in vitro. The conditions noted are these: dog, MDCK-MDR1. The protocol:
All dose solutions contained 10 μM propranolol as an internal standard. MDCK cells carrying the MDR-1 gene were used to seed filters that were exposed to a fixed volume of the donor solution containing the compound of interest. The compound's ability to traverse the monolayer and appear in the receiver compartment was measured over a 30 min period. Bidirectional permeability measurements were derived by examining the transfer of compound from both the apical to the basolateral compartment and vice versa. Sample analysis was conducted using LC-MS/MS with the detection settings optimized for each test compound.

A further data set concerns M. tuberculosis H37Rv. The conditions noted are these: virulent M. tuberculosis H37Rv strain; cited from earlier work.
Setting [8] is: 336 h, read-out: MIC M. bovis BCG, SPOTi, 2 weeks at 37°C.
The mark [9] stands for this setting: read-out: MIC M. bovis BCG, SPOTi, value in square brackets.
The mark [10] stands for this setting: RAW264.7, value in square brackets.
[11] abbreviates: murine macrophage cell line RAW264.7.

Consider three molecules from PMC4498294, “Tetrahydroisoquinolines affect the whole-cell phenotype of Mycobacterium tuberculosis by inhibiting the ATP-dependent MurE ligase” (Journal of Antimicrobial Chemotherapy, 2015).

Converted amounts (≈) assume the structure as drawn. Read-outs that look alike come from different tables or passages of the source. Bounds are passed on as bounds.

Chain of MurE (Rv2158c) protein of M. tuberculosis H37Rv (P9WJL3 whole entry, looked up): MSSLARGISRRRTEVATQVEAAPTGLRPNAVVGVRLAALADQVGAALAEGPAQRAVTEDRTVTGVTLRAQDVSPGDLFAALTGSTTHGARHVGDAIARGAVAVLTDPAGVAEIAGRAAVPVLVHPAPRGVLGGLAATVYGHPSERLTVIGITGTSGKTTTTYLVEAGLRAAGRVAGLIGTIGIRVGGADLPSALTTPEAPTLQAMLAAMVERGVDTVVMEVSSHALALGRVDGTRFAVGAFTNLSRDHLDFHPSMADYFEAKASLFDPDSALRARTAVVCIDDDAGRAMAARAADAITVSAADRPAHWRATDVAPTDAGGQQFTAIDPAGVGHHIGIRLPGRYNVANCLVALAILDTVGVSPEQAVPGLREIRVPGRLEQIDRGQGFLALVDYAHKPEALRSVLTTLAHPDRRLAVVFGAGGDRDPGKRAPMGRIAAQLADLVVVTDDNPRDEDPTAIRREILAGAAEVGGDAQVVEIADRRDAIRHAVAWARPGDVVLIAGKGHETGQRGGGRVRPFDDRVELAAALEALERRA
T4 sequence (P11712 whole entry): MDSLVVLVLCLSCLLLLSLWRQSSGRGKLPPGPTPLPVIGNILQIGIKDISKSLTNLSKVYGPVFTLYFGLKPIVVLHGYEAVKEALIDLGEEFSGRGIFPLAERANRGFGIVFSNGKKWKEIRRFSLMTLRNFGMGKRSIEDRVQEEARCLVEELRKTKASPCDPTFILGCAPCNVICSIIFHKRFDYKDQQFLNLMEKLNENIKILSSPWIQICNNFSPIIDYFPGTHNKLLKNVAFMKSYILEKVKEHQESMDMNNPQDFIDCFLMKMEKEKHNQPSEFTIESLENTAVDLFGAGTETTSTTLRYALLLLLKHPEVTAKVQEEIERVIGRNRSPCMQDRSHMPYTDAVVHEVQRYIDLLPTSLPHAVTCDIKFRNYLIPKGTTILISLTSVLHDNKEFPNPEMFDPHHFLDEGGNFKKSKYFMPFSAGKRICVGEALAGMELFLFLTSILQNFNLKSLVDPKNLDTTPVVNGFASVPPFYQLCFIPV
T5 sequence (P08684 whole entry): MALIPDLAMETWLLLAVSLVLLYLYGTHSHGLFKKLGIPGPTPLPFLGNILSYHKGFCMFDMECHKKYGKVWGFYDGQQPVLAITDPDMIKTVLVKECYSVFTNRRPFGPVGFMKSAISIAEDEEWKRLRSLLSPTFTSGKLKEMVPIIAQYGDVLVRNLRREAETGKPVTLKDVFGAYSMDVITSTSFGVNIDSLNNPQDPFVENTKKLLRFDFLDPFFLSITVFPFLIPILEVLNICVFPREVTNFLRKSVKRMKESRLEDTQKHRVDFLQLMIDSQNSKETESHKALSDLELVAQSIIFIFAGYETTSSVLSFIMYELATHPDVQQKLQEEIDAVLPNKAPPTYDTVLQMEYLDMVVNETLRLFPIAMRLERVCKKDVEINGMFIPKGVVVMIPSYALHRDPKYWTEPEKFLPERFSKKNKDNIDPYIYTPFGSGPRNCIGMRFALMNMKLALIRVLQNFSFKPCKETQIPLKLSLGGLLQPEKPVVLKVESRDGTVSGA
Chain of P-glycoprotein (P08183 whole entry): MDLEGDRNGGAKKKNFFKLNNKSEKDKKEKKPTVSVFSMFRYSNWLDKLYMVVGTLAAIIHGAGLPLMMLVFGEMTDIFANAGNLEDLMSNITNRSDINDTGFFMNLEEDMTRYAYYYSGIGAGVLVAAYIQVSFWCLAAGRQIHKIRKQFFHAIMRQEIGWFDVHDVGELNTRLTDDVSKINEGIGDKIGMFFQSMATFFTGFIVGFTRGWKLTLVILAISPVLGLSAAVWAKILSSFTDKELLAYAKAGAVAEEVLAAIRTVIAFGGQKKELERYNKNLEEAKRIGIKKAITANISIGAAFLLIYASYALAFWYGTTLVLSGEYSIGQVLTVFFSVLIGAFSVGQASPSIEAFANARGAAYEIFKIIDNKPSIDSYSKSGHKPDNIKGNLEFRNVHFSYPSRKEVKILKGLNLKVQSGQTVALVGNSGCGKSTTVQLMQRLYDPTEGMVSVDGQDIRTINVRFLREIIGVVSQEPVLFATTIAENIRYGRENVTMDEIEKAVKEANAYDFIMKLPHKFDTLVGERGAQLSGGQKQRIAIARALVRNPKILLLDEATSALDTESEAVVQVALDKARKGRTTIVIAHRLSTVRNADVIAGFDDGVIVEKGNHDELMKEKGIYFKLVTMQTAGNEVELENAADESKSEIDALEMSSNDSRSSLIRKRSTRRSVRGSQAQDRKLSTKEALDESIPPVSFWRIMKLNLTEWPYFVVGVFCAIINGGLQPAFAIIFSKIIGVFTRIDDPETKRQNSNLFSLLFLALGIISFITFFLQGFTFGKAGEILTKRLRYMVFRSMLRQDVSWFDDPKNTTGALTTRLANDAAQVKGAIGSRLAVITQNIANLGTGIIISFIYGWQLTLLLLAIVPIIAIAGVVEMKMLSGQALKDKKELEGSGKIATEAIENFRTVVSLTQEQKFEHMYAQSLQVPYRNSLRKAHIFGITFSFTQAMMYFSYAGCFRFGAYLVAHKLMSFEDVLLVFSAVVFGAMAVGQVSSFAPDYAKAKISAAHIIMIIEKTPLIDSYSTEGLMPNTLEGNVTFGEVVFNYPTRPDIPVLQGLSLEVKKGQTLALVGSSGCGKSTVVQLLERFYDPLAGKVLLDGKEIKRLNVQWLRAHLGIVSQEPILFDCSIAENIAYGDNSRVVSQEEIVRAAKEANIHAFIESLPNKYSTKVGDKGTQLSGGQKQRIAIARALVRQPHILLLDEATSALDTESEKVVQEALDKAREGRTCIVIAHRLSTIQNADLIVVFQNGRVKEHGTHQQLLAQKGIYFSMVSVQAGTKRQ

Regarding `Oc1ccc(Br)c2c1C(c1cccc3c1OCO3)NCC2` (centres unmarked) [Compound 35], the inhibition on CYP 1A2 worked out at 36.7%; on CYP 2C19, 98.2%; at CYP 2D6 it was 80.7%; at CYP 2C9, 44.9%; at CYP 3A4, 80%. For the same molecule, in data set [1], the “Papp A-B” value is given as 3.2 cm/sec, x10-6. The results for the Papp A→B at 30 min, 10 μM (in the data set with MDR-1; in [2]) were 3.2 ×10⁻⁶ cm/s and 2 to 20 ×10⁻⁶ cm/s, respectively. In the data set on MDR-1, this molecule returned a basolateral-to-apical permeability (Papp B→A) at 30 min, 10 μM of 38 ×10⁻⁶ cm/s. Further, the “Mean % microsome turnover” value in data set [3] (human liver microsomes, 0 min) is listed as -5.55e-15%; in data set [3] (human liver microsomes, 15 min), 3.85%; in [3] (human liver microsomes, 30 min), 14.54%; in data set [3] (human liver microsomes, 60 min), 30.44%. For the same molecule, the Mean compound remaining in [3] (human liver microsomes, 0 min) turned out to be 100.00; in [3] (human liver microsomes, 15 min) it was 96.15; in data set [3] (human liver microsomes, 30 min), 85.46; in data set [3] (human liver microsomes, 60 min) it was 69.56. In addition, the Microsomal stability in data set [3] (human liver microsomes, 0 min) is on record as 4.60; in data set [3] (human liver microsomes, 15 min), 4.57; in data set [3] (human liver microsomes, 30 min), 4.45; in data set [3] (human liver microsomes, 60 min), 4.24. Further, the half-life in [3] amounted to 110 min; in data set [4] (human hepatocytes), 78.6 min. In data set [4], the hepatic extraction ratio is given as more than 0.6. In addition, the intrinsic clearance (hepatocyte CLint) in data set [4] was 12.6 µL/min/1e6 cells. The results for the MIC in the data set on M. bovis BCG Pasteur (setting [8]) and in the data set with M. bovis BCG Pasteur (setting [9]) were 60 µg/mL and 172 µM, respectively. In addition, in [5], the solubility (kinetic) at 24 h is 300 µg/mL (≈ 862 µM). The figures for the IC50 in [6] (setting [10]), in data set [6] (setting [11]) and in data set [7] were 348 µM, 121 µg/mL and less than 111 µM, respectively. Further, the efflux ratio on P-glycoprotein was 11.9.
For `Oc1ccc(Br)c2c1C(Cc1ccc3c(c1)OCO3)NCC2` (centres unmarked) [Compound 28], the inhibition on CYP 1A2 stood at 81.4%; at CYP 2C19, 97.5%; at CYP 2D6 it was 92.9%; at CYP 2C9 it was 81.8%; on CYP 3A4, 93.2%. The “Papp A-B” value in data set [1] is recorded as 1.7 cm/sec, x10-6. In addition, the values for the Papp A→B at 30 min, 10 μM (with MDR-1; in data set [2]) were 1.7 ×10⁻⁶ cm/s and less than 2 ×10⁻⁶ cm/s, respectively. In the data set with MDR-1, the Papp B→A at 30 min, 10 μM was determined as 18.8 ×10⁻⁶ cm/s. In data set [3] (human liver microsomes), this molecule yielded a t1/2 microsomes of 9.8 min. Besides, the “Mean % microsome turnover” value in data set [3] (human liver microsomes, 0 min) is listed as -5.33e-15%; in data set [3] (human liver microsomes, 15 min), 64.61%; in [3] (human liver microsomes, 30 min), 88.00%; in data set [3] (human liver microsomes, 60 min), 92.24%. Also, the Mean compound remaining in [3] (human liver microsomes, 0 min) amounted to 100.00; in data set [3] (human liver microsomes, 15 min) it was 35.39; in data set [3] (human liver microsomes, 30 min), 12.00; in data set [3] (human liver microsomes, 60 min), 7.76. The Microsomal stability is 4.60 in [3] (human liver microsomes, 0 min); 3.57 in data set [3] (human liver microsomes, 15 min); 2.48 in data set [3] (human liver microsomes, 30 min); 2.03 in data set [3] (human liver microsomes, 60 min). In addition, the half-life in data set [3] was 9.81 min; in data set [4] (human hepatocytes), 23.2 min. Further, the hepatic extraction ratio in data set [4] is listed as more than 0.6. For the same molecule, the t1/2 hepatocytes in [4] (human hepatocytes) worked out at 23.2 min. Also, the intrinsic metabolic clearance (hepatocyte CLint) in data set [4] is 17.4 µL/min/1e6 cells. The MIC in the data set on M. bovis BCG Pasteur (setting [8]) is 20 µg/mL; with M. bovis BCG Pasteur (setting [9]), 55 µM. The same molecule registered a kinetic solubility at 24 h in data set [5] of 800 µg/mL (≈ 2210 µM). In addition, the solubility at 24 h in data set [5] (read-out: aqueous solubility (class)) was more than 500 µg/mL. Besides, the IC50 in data set [6] (setting [10]) was 130 µM; in data set [6] (setting [11]) it was 47 µg/mL; in data set [7], less than 111 µM. Also, the efflux ratio at P-glycoprotein came to 11.3.
On to `COc1cc2c(cc1OC)-c1c3c(cc4c1[C@H](C2)NCC4)OCO3` [(-)-Nordicentrine], for which the “MIC M. tuberculosis H37Rv” value in the data set on M. tuberculosis H37Rv is 12.5 µg/mL (≈ 38.4 µM).

For orientation: Papp A→B means how fast a substance crosses the layer from the apical side. For orientation: Papp B→A means the apparent permeability from the basolateral to the apical side of a cell layer. In general, hepatocyte CLint refers to the rate of metabolic loss divided by the concentration. What is called kinetic solubility is solubility judged after dilution from a stock solution rather than from solid. By efflux ratio is commonly meant the permeability from basolateral to apical divided by that in the opposite direction, in the common usage. As a reminder, the solubility is how much of the substance goes into solution per volume.
